Common to all, as to format: cell-based
Assay [1] deals with cultured cerebrocortical neurons.
Assay [2] has as its target T1, NR1/NR3B receptors (Rattus norvegicus, UniProt P35439+Q8VHN2).
T1 construct: Full-length cDNAs encoding NMDA receptor subunits were linearized and used as templates for synthesis of cRNA; expressed in transfected cells; host or cells: Xenopus laevis oocytes injected with cRNA
In words: Glycine-evoked whole-oocyte currents of NR1/NR3B receptors, dual-electrode voltage clamp in Xenopus oocytes. From the text: NR3B cRNA for oocyte expression was produced as follows. The full-length NR3B cDNA was constructed in the pCMV6-XL4 vector (OriGene Technologies, Inc., Rockville, Md.), which contains a T7 promoter upstream of the cDNA insert. […] The truncated cRNA could potentially encode a dominant negative form of NR3B. Therefore, a new vector was constructed to facilitate production of exclusively full-length NR3B cRNA. Construction of this vector proceeded as follows. NR1 cDNA was excised from the pGEM-HE/NR1 vector (a gift from S. F. Heinemann) by digestion with EcoRI and the two ends of the truncated pGEM-HE vector were re-ligated. The truncated pGEM-HE vector retained the 5′ and 3′ UTRs of the X. laevis β-globin gene for high level protein expression in frog oocytes. The SfoI-KpnI fragment of truncated pGEM-HE, which contains the T7 promoter, was replaced with the PvuII-KpnI fragment of pBluescript II KS, which contains the T3 promoter, to generate pJC32. The abbreviated multiple cloning site of pJC32 was then replaced with the multiple cloning site from pcDNA3.1(+) (Invitrogen, Carlsbad, Calif.) by ligating the 102 bp PmeI fragment of pcDNA3.1(+) into the 3 kb SmaI-EcoRV fragment of pJC32 to generate pJC34. […] The resulting vector, pJC39, contains three rare restriction sites downstream of the multiple cloning site to facilitate linearization prior to in vitro transcription using T3 RNA polymerase.
The full-length NR3B (B4 form) cDNA was then excised from pCMV6-XL4 by digestion with EcoRI and XbaI, and the 3.2 kb fragment was ligated into EcoRI/XbaI-digested pJC39. The resulting vector, pJC42, was linearized with PmeI, and in vitro transcription was performed using the mMessage mMachine T3 kit (Ambion, Inc., Austin, Tex.) according to the manufacturer's instructions.
Micropipettes were filled with 3 M KCl.

In assay [3] the target is T2, NR1/NR3A receptors (Rattus norvegicus, UniProt P35439+Q9R1M7).
T2 construct: Full-length cDNAs encoding NMDA receptor subunits were linearized and used as templates for synthesis of cRNA; expressed in transfected cells; host or cells: Xenopus laevis oocytes injected with cRNA
T2 sequence (Q9R1M7 24-1115 isoform Q9R1M7-2 limits assumed, other chains not shown): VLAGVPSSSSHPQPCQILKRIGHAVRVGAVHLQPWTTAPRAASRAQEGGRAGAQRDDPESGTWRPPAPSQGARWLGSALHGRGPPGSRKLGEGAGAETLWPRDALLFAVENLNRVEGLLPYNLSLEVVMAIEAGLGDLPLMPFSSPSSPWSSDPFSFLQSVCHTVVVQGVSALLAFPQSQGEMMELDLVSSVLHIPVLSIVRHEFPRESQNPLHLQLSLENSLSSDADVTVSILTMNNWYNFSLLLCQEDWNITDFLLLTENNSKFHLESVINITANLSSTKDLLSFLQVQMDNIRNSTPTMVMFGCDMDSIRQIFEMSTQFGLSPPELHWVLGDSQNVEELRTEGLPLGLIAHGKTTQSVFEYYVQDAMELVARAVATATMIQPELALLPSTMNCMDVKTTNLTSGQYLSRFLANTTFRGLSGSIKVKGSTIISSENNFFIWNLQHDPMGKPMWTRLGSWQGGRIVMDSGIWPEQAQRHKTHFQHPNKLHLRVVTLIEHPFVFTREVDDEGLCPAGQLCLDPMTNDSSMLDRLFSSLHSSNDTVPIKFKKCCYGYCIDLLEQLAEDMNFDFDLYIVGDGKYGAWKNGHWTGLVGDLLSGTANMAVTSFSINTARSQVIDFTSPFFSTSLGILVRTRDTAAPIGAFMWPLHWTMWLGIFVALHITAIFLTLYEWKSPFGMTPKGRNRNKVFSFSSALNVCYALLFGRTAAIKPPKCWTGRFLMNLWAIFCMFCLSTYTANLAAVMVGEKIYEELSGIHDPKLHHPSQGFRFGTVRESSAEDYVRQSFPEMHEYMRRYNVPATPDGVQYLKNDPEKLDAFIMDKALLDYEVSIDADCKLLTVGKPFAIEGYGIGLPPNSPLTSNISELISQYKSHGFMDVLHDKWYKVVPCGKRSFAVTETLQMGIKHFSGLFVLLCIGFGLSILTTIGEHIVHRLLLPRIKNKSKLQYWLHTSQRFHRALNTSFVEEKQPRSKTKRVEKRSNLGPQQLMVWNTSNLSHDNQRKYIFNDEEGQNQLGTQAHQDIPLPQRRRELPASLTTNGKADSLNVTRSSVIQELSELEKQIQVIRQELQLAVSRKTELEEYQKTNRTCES
In words: Glycine-evoked whole-oocyte currents of NR1/NR3A receptors, two-electrode voltage recordings in Xenopus oocytes. (In two-electrode clamp one electrode senses voltage and the other passes current.)

The subject of assay [4] is cerebrocortical neurons. In words: Single-channel recording from outside-out patches of cerebrocortical neurons.

Entries after “also recorded” stand apart in the source; their conditions may differ. Read-outs that look alike come from different tables or passages of the source.

T1 sequence (Q8VHN2 25-1002, other chains not shown): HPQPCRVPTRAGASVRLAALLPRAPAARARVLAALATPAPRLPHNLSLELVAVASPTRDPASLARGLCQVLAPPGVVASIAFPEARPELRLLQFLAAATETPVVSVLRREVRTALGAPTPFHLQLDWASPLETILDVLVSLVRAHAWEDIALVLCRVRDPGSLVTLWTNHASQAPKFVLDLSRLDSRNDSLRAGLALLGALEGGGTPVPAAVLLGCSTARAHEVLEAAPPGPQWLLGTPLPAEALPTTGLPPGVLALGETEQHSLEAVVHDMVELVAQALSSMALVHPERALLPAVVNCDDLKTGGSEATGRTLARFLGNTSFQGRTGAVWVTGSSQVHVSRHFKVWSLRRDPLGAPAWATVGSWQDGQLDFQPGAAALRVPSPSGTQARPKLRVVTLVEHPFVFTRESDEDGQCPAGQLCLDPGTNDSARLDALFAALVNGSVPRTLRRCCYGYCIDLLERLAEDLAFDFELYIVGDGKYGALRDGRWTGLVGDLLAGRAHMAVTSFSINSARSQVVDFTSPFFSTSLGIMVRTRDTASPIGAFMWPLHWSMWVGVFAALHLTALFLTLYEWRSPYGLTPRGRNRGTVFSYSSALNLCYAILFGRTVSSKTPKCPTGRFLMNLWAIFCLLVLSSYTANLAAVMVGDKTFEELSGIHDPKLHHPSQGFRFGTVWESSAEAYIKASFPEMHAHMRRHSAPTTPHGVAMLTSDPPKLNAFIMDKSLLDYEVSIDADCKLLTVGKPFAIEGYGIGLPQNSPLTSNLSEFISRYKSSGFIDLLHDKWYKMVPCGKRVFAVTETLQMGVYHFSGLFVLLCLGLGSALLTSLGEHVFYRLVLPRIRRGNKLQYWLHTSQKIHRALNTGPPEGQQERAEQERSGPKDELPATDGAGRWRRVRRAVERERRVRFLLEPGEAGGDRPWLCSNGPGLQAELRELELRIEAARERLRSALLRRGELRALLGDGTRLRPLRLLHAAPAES

`NC1=N[C@H](O)[C@H]2[C@H]3O[C@]4(O)O[C@@H]([C@@H](O)[C@@]2(N1)[C@@H]4O)[C@]3(O)CO` [tetrodotoxin]: in assay [1], the “effect on glycine-evoked bursting response of cultured neurons” value was “inhibited”.

`NCC(=O)O` [glycine]: the “recordings in which glycine triggered neuronal bursting” value in assay [1] is 22 of 26.

In the case of `CN[C@H](CC(=O)O)C(=O)O` [NMDA, N-methyl-D-aspartate], in assay [2], the “activation of NR1/NR3B receptors by the substance alone (without co-agonist)” value (from here on “activation … (without co-agonist)”) is on record as “did not evoke glycine-independent responses; also recorded: did not evoke a glycine-independent response” and the “effect on glycine-evoked currents of NR1/NR3B receptors” value is given as “little or no effect; also recorded: did not potentiate glycine-evoked currents”. For the same molecule, the “effect on glycine-evoked currents of NR1/NR3A receptors” value in assay [3] is “did not potentiate glycine-evoked currents”.

Turning to `O=C(O)c1cc(=O)c2c(Cl)cc(Cl)cc2[nH]1` [5,7-DCKA, 5,7-dichlorokynurenate], the “effect on glycine-evoked currents of NR1/NR3B receptors” value in assay [2] is on record as “blocks glycine activated currents; also recorded: virtually abolished”.

Regarding `[Mg+2]` [Mg^2+], the “sensitivity of NR1/NR3B receptors to open-channel blocker compared to NR1/NR2A receptors” value in assay [2] is recorded as “drastically less sensitive”. In addition, the “sensitivity of NR1/NR3A receptors to open-channel blocker compared to NR1/NR2A receptors” value in assay [3] was “drastically less sensitive”. Also, in assay [4], the “effect on channel activity (NPo) evoked by 2.5 μM glycine” value is listed as “little effect” and the “effect on glycine-activated single channels of cerebrocortical neurons” value is listed as “little effect”.

Turning to `N[C@H](CCCP(=O)(O)O)C(=O)O` [AP5, D-(−)-2-amino-5-phosphonopentanoate], the “effect on glycine-evoked currents of NR1/NR3B receptors at 10 μM” value in assay [2] is reported as “little or no effect”. Moreover, in assay [3], the “effect on glycine-evoked currents of NR1/NR3A receptors at 10 μM” value is on record as “little or no effect”.

On to `N[C@H](CO)C(=O)O` [D-serine], for which the “activation … (without co-agonist)” value in assay [2] (Xenopus oocytes) is “evokes small NR1/NR3B currents alone; also recorded: activated NR1/NR3B receptors in the absence of glycine; also recorded: evoked small currents alone”. For the same molecule, the “effect on glycine-evoked currents of NR1/NR3B receptors” value in assay [2] (Xenopus oocytes, glycine 10 μM, NMDA or L-glutamate 100 μM unless otherwise indicated) was “dose-dependently inhibits currents in the presence of glycine; also recorded: inhibited the glycine response”. In assay [1], the “effect on glycine-evoked bursting response of cultured neurons” value is reported as “inhibited” and the “glycine-responsive cells in which glycine-triggered bursting was inhibited” value is 5 of 22. In assay [3] (Xenopus oocytes), the “activation of NR1/NR3A receptors by the substance alone” value is given as “did not independently manifest any agonist activity” and the “effect on glycine-evoked currents of NR1/NR3A receptors” value is “even more potent antagonist”. Besides, in assay [4], the “effect on channel activity (NPo) evoked by 2.5 μM glycine” value is reported as “decreased” and the “effect on glycine-activated single channels of cerebrocortical neurons” value is on record as “inhibited”.

Turning to `N[C@@H](CCC(=O)O)C(=O)O` [L-glutamate], in assay [2], the “activation … (without co-agonist)” value is “did not evoke glycine-independent responses; also recorded: did not evoke a glycine-independent response” and the “effect on glycine-evoked currents of NR1/NR3B receptors” value is “little or no effect; also recorded: did not potentiate glycine-evoked currents”. Further, the “effect on glycine-evoked currents of NR1/NR3A receptors” value in assay [3] is on record as “did not potentiate glycine-evoked currents”.

As to `C[C@]12N[C@H](Cc3ccccc31)c1ccccc12` [MK-801], the “sensitivity of NR1/NR3B receptors to open-channel blocker compared to NR1/NR2A receptors” value in assay [2] is reported as “drastically less sensitive”. Moreover, the “sensitivity of NR1/NR3A receptors to open-channel blocker compared to NR1/NR2A receptors” value in assay [3] is reported as “drastically less sensitive”.

Consider `NC1(C(=O)O)CC1` [ACPC, 1-aminocyclopropanecarboxylic acid], for which the “effect on glycine-evoked currents of NR1/NR3B receptors” value in assay [2] was “inhibited”.

Source of the values: US8193315B2 (Sanford-Burnham Medical Research Institute, priority 2001, dated 2012).
